Experimental data reported in ChEMBL document CHEMBL1147306, “Studies on inhibitors of skin tumor promotion, VI. Inhibitory effects of quinones on Epstein-Barr virus activation” (J Nat Prod, 1989).

Columns and labels:
Type in all cases: cell-based
Raji [1] = assay: Inhibition of TPA-induced EBV-early antigen activation in human Raji cells at 500 molar ratio after 48 hrs by indirect immunofluorescence technique relative to TPA; conditions: human gammaherpesvirus 4
[2] = Cytotoxicity against human Raji cells assessed as cell viability at 100 molar ratio; conditions: read-out: Activity
Raji [3] = assay: Inhibition of TPA-induced EBV-early antigen activation in human Raji cells at 10 molar ratio after 48 hrs by indirect immunofluorescence technique relative to TPA; conditions: human gammaherpesvirus 4
[4] = Cytotoxicity against human Raji cells assessed as cell viability at 500 molar ratio; conditions: read-out: Activity
[5] = Cytotoxicity against human Raji cells assessed as cell viability at 1000 molar ratio; conditions: read-out: Activity
Raji [6] = assay: Inhibition of TPA-induced EBV-early antigen activation in human Raji cells at 100 molar ratio after 48 hrs by indirect immunofluorescence technique relative to TPA; conditions: human gammaherpesvirus 4
[7] = Cytotoxicity against human Raji cells assessed as cell viability at 10 molar ratio; conditions: read-out: Activity

| SMILES | EBV-EA activation % of TPA control (Raji [1]) | viability at 100 molar ratio [2] | EBV-EA activation % of TPA control (Raji [3]) | viability at 500 molar ratio [4] | viability at 1000 molar ratio [5] | EBV-EA activation % of TPA control (Raji [6]) | viability at 10 molar ratio [7] |
| --- | --- | --- | --- | --- | --- | --- | --- |
| O=C(O)c1cc(O)c2c(c1)[C@@H]([C@H]1c3cc(C(=O)O)cc(O)c3C(=O)c3c(O[C@@H]4O[C@H](CO)[C@@H](O)[C@H](O)[C@H]4O)cccc31)c1cccc(O[C@@H]3O[C@H](CO)[C@@H](O)[C@H](O)[C@H]3O)c1C2=O [SENNOSIDE B] | 100% | > 80% | 100% | > 80% | 70% | 100% | > 80% |
| CC1=CC(=O)c2ccccc2C1=O [MENADIONE] | 0% | 70% | 89.4% | 0% | 0% | 65.7% | > 80% |
| COc1cccc2c1C(=O)c1c(ccc3c1OCO3)C2=O | 57.6% | > 80% | 100% | > 80% | 60% | 82.5% | > 80% |
| Cc1ccnc2c1C(O)c1ccccc1-2 (configuration not stated) | 100% | > 80% | 100% | > 80% | > 80% | 100% | > 80% |
| COc1c(C=O)c(O)cc2c1C(=O)c1ccccc1C2=O [DAMNACANTHAL] | 51.6% | > 80% | 100% | > 80% | 60% | 92.8% | > 80% |
| O=C1c2ccc(O)c(O)c2C(=O)c2c(O)ccc(O)c21 [QUINALIZARIN] | 0% | > 80% | 100% | 60% | 40% | 88.4% | > 80% |
| COCc1c(O)cc2c(c1O)C(=O)c1ccccc1C2=O | 77% | > 80% | 100% | > 80% | 60% | 80.4% | > 80% |
| O=C1c2ccccc2C(=O)c2c(O)c(O)cc(O)c21 [PURPURIN] | 54.3% | > 80% | 100% | > 80% | 70% | 100% | > 80% |
| CC1(c2cc3c(o2)C(=O)c2ccccc2C3=O)OCCO1 | 0% | 10% | 32.4% | 10% | 0% | 0% | 60% |
| CN(C)C1=CC(=O)c2c(O)cccc2C1=O | 60.5% | > 80% | 89.2% | > 80% | > 80% | 61.5% | > 80% |
| CC1C=CNC2=C1C(=O)c1c(O)ccc(O)c1C2=O (configuration not stated) | 20.4% | > 80% | 100% | 70% | 10% | 100% | > 80% |
| Cc1cnc2c(c1)C(=O)c1ccccc1C2=O | 48.7% | > 80% | 100% | > 80% | 70% | 76.5% | > 80% |
| O=C1C=CC(=O)c2c(O)cccc21 [JUGLONE] | 13.1% | > 80% | 100% | 60% | 40% | 97.8% | > 80% |
| Cc1ccnc2c1C(=O)c1cccc(O)c1C2=O | 15.4% | > 80% | 89.1% | 60% | 40% | 67.4% | > 80% |
| CN(C)C1=CC(=O)c2ccccc2C1=O | 89.2% | > 80% | 100% | > 80% | > 80% | 92.5% | > 80% |
| COc1cccc2c1C(=O)c1ncc(C)cc1C2=O | 83% | > 80% | 100% | > 80% | > 80% | 100% | > 80% |

| SMILES | EBV-EA activation % of TPA control (Raji [1]) | viability at 100 molar ratio [2] | EBV-EA activation % of TPA control (Raji [3]) | viability at 500 molar ratio [4] | viability at 1000 molar ratio [5] | EBV-EA activation % of TPA control (Raji [6]) | viability at 10 molar ratio [7] |
| --- | --- | --- | --- | --- | --- | --- | --- |
| O=C1c2ccccc2C(=O)c2cnccc21 | 13% | > 80% | 100% | 10% | 10% | 69.5% | > 80% |
| CN(C)C1=CC(=O)c2c(O)ccc(O)c2C1=O | 28.2% | > 80% | 100% | > 80% | 50% | 87.2% | > 80% |
| O=C1C=CC(=O)c2c(O)ccc(O)c21 [NAPHTHAZALIN] | 0% | 50% | 68.9% | 40% | 20% | 0% | > 80% |
| COc1ccc2c(c1)C(=O)c1ccc3c(c1C2=O)OCO3 | 56.8% | > 80% | 100% | > 80% | 70% | 78.9% | > 80% |
| O=C1c2cccc(O)c2C(=O)c2c(O)cccc21 [DANTHRON] | 61.9% | > 80% | 94.2% | > 80% | > 80% | 71.2% | > 80% |
| O=C1c2ccccc2C(=O)c2occc21 | 0% | 10% | 59.4% | 10% | 0% | 0% | 70% |
| O=C1c2ccccc2-c2ncccc21 | 97.6% | > 80% | 100% | > 80% | 70% | 100% | > 80% |
| O=C1C=CC(=O)c2cc(O)ccc21 | 0% | 60% | 92.3% | 60% | 10% | 67.2% | > 80% |
| Cc1ccnc2c1C(=O)c1cc(O)ccc1C2=O | 73.9% | > 80% | 100% | 60% | 60% | 74.4% | > 80% |
| O=C1c2ccccc2C(=O)c2c1ccc(O)c2O [ATHRAQUINONES A] | 92.4% | > 80% | 100% | > 80% | 60% | 100% | > 80% |
| O=C1c2ccccc2C(=O)c2sccc21 [THIOPHENONAPHTHOQUINONE] | 0% | 70% | 81.4% | 0% | 0% | 52.8% | > 80% |
| CC1=C(C/C=C(\C)CCC[C@H](C)CCC[C@H](C)CCCC(C)C)C(=O)c2ccccc2C1=O [PHYTONADIONE] | 100% | > 80% | 100% | > 80% | 70% | 100% | > 80% |
| Cc1ccc2c(n1)C(=O)c1c(O)cccc1C2=O | 17.3% | > 80% | 92.4% | 50% | 10% | 56.8% | > 80% |
| CN(C)C1=CC(=O)c2cc(O)ccc2C1=O | 68.5% | > 80% | 100% | > 80% | 60% | 100% | > 80% |
| COCc1c(O)cc2c(c1O)C(=O)c1cccc(O)c1C2=O | 21% | > 80% | 100% | > 80% | > 80% | 51.8% | > 80% |
